According to the supplement of paper PMC10307832:

Legend:
Experiment in all cases: relative viability (nuclei count vs DMSO), 5 days (fraction); higher = more cells survive
[1] = test system: A-427
Summary of the method: (§1)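 Relative viability is defined as nuclei in treated wells over nuclei in vehicle wells. Duplicate plates were run and medians reported. Lung cancer cell lines in 1536-well plates were dosed by pin tool one day after seeding, with one drug or with a fixed anchor-drug dose plus five library-drug doses (not always all listed) in √10 steps, and nuclei were counted after 5 days.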

[2] = test system: H3255
Summary of the method: as §1

[3] = test system: HARA
Summary of the method: as §1

[4] = test system: HCC-366
Summary of the method: as §1

[5] = test system: HCC-44
Summary of the method: as §1

[6] = test system: LCLC-97TM1
Summary of the method: as §1

[7] = test system: LXF-289
Summary of the method: as §1

[8] = test system: NCI-H1395
Summary of the method: as §1

[9] = test system: NCI-H1755
Summary of the method: as §1

[10] = test system: NCI-H1915
Summary of the method: as §1

[11] = test system: NCI-H1975
Summary of the method: as §1

[12] = test system: NCI-H1993
Summary of the method: as §1

[13] = test system: NCI-H2170
Summary of the method: as §1

[14] = test system: NCI-H2228
Summary of the method: as §1

[15] = test system: NCI-H2347
Summary of the method: as §1

[16] = test system: NCI-H2405
Summary of the method: as §1

[17] = test system: NCI-H3122
Summary of the method: as §1

[18] = test system: NCI-H441
Summary of the method: as §1

[19] = test system: NCI-H520
Summary of the method: as §1

[20] = test system: NCI-H838
Summary of the method: as §1

[21] = test system: PC-14
Summary of the method: as §1

[22] = test system: RERF-LC-KJ
Summary of the method: as §1

[23] = test system: SK-MES-1
Summary of the method: as §1

With `C=C1C(=O)O[C@@H](CCCCCCCC)[C@@H]1C(=O)O` [C-75] + O=C(c1cc(Cc2n[nH]c(=O)c3ccccc23)ccc1F)N1CCN(C(=O)C2CC2)CC1 [Olaparib] (partner 8 µM) as the compound, how does the relative viability ([1]; first compound 0.08 µM) read?
The relative viability was 0.718.

What about the relative viability ([1]; first compound 0.253 µM) of the same compound?
The relative viability was 0.69.

What about the relative viability ([1]; first compound 0.8 µM) of the same compound?
Its relative viability is 0.678.

What about the relative viability ([1]; first compound 2.53 µM) of the same compound?
The relative viability was 0.708.

And the relative viability ([1]; first compound 8 µM)?
Its relative viability is 0.597.

What about the relative viability ([2]; first compound 0.08 µM) of the same compound?
Its relative viability is 0.629.

What about the relative viability ([2]; first compound 0.253 µM) of the same compound?
The relative viability was 0.581.

And the relative viability ([2]; first compound 0.8 µM)?
Its relative viability is 0.583.

What about the relative viability ([2]; first compound 2.53 µM) of the same compound?
Its relative viability is 0.537.

And the relative viability ([2]; first compound 8 µM)?
Its relative viability is 0.573.

And the relative viability ([3]; first compound 0.08 µM)?
The relative viability was 0.76.

What about the relative viability ([3]; first compound 0.253 µM) of the same compound?
Its relative viability is 0.749.

What about the relative viability ([3]; first compound 0.8 µM) of the same compound?
Its relative viability is 1.04.

And the relative viability ([3]; first compound 2.53 µM)?
The relative viability was 0.803.

What about the relative viability ([3]; first compound 8 µM) of the same compound?
Its relative viability is 0.715.

What about the relative viability ([4]; first compound 0.08 µM) of the same compound?
The relative viability was 0.349.

What about the relative viability ([4]; first compound 0.253 µM) of the same compound?
The relative viability was 0.49.

And the relative viability ([4]; first compound 0.8 µM)?
The relative viability was 0.341.

And the relative viability ([4]; first compound 2.53 µM)?
The relative viability was 0.356.

What about the relative viability ([4]; first compound 8 µM) of the same compound?
Its relative viability is 0.347.

And the relative viability ([5]; first compound 0.08 µM)?
The relative viability was 0.998.

And the relative viability ([5]; first compound 0.253 µM)?
The relative viability was 0.944.

And the relative viability ([5]; first compound 0.8 µM)?
Its relative viability is 0.962.

And the relative viability ([5]; first compound 2.53 µM)?
Its relative viability is 0.905.

And the relative viability ([5]; first compound 8 µM)?
The relative viability was 0.919.

What about the relative viability ([6]; first compound 0.08 µM) of the same compound?
The relative viability was 0.349.

What about the relative viability ([6]; first compound 0.253 µM) of the same compound?
The relative viability was 0.402.

What about the relative viability ([6]; first compound 0.8 µM) of the same compound?
The relative viability was 0.494.

And the relative viability ([6]; first compound 2.53 µM)?
The relative viability was 0.338.

What about the relative viability ([6]; first compound 8 µM) of the same compound?
Its relative viability is 0.303.

What about the relative viability ([7]; first compound 0.08 µM) of the same compound?
Its relative viability is 1.05.

What about the relative viability ([7]; first compound 0.253 µM) of the same compound?
Its relative viability is 1.11.

And the relative viability ([7]; first compound 0.8 µM)?
Its relative viability is 1.01.

What about the relative viability ([7]; first compound 2.53 µM) of the same compound?
Its relative viability is 0.992.

And the relative viability ([7]; first compound 8 µM)?
Its relative viability is 1.06.

What about the relative viability ([8]; first compound 0.08 µM) of the same compound?
Its relative viability is 0.423.

What about the relative viability ([8]; first compound 0.253 µM) of the same compound?
The relative viability was 0.433.

And the relative viability ([8]; first compound 2.53 µM)?
The relative viability was 0.465.

What about the relative viability ([8]; first compound 8 µM) of the same compound?
The relative viability was 0.511.

What about the relative viability ([9]; first compound 0.08 µM) of the same compound?
Its relative viability is 0.93.

What about the relative viability ([9]; first compound 0.253 µM) of the same compound?
The relative viability was 0.872.

What about the relative viability ([9]; first compound 0.8 µM) of the same compound?
Its relative viability is 0.847.

What about the relative viability ([9]; first compound 2.53 µM) of the same compound?
The relative viability was 0.797.

What about the relative viability ([9]; first compound 8 µM) of the same compound?
The relative viability was 0.846.

And the relative viability ([10]; first compound 0.08 µM)?
The relative viability was 0.243.

And the relative viability ([10]; first compound 0.253 µM)?
The relative viability was 0.242.

What about the relative viability ([10]; first compound 0.8 µM) of the same compound?
The relative viability was 0.261.

What about the relative viability ([10]; first compound 2.53 µM) of the same compound?
The relative viability was 0.262.

And the relative viability ([10]; first compound 8 µM)?
Its relative viability is 0.257.

And the relative viability ([11]; first compound 0.08 µM)?
The relative viability was 0.777.

And the relative viability ([11]; first compound 0.253 µM)?
The relative viability was 0.817.

What about the relative viability ([11]; first compound 0.8 µM) of the same compound?
The relative viability was 0.755.

And the relative viability ([11]; first compound 2.53 µM)?
The relative viability was 0.77.

What about the relative viability ([11]; first compound 8 µM) of the same compound?
Its relative viability is 0.741.

What about the relative viability ([12]; first compound 0.08 µM) of the same compound?
The relative viability was 1.02.

And the relative viability ([12]; first compound 0.253 µM)?
The relative viability was 1.34.

And the relative viability ([12]; first compound 0.8 µM)?
Its relative viability is 0.676.

And the relative viability ([12]; first compound 2.53 µM)?
The relative viability was 1.05.

What about the relative viability ([12]; first compound 8 µM) of the same compound?
The relative viability was 1.17.

And the relative viability ([13]; first compound 0.08 µM)?
Its relative viability is 0.594.

And the relative viability ([13]; first compound 0.253 µM)?
The relative viability was 0.633.

What about the relative viability ([13]; first compound 0.8 µM) of the same compound?
The relative viability was 0.541.

And the relative viability ([13]; first compound 2.53 µM)?
The relative viability was 0.647.

And the relative viability ([13]; first compound 8 µM)?
The relative viability was 0.627.

What about the relative viability ([14]; first compound 0.08 µM) of the same compound?
The relative viability was 0.709.

And the relative viability ([14]; first compound 0.253 µM)?
Its relative viability is 0.897.

And the relative viability ([14]; first compound 0.8 µM)?
The relative viability was 0.494.

And the relative viability ([14]; first compound 2.53 µM)?
The relative viability was 0.543.

What about the relative viability ([14]; first compound 8 µM) of the same compound?
Its relative viability is 0.414.

What about the relative viability ([15]; first compound 0.08 µM) of the same compound?
Its relative viability is 0.552.

What about the relative viability ([15]; first compound 0.253 µM) of the same compound?
Its relative viability is 0.514.

And the relative viability ([15]; first compound 0.8 µM)?
The relative viability was 0.532.

And the relative viability ([15]; first compound 2.53 µM)?
Its relative viability is 0.539.

And the relative viability ([15]; first compound 8 µM)?
The relative viability was 0.614.

And the relative viability ([16]; first compound 0.08 µM)?
Its relative viability is 0.808.

And the relative viability ([16]; first compound 0.253 µM)?
The relative viability was 0.734.

And the relative viability ([16]; first compound 0.8 µM)?
Its relative viability is 0.879.

What about the relative viability ([16]; first compound 2.53 µM) of the same compound?
Its relative viability is 0.803.

And the relative viability ([16]; first compound 8 µM)?
Its relative viability is 0.852.

What about the relative viability ([17]; first compound 0.08 µM) of the same compound?
The relative viability was 0.662.

What about the relative viability ([17]; first compound 0.253 µM) of the same compound?
Its relative viability is 0.636.

And the relative viability ([17]; first compound 0.8 µM)?
Its relative viability is 0.567.

And the relative viability ([17]; first compound 2.53 µM)?
The relative viability was 0.51.

And the relative viability ([17]; first compound 8 µM)?
The relative viability was 0.635.

And the relative viability ([18]; first compound 0.08 µM)?
Its relative viability is 0.487.

And the relative viability ([18]; first compound 0.253 µM)?
Its relative viability is 0.391.

What about the relative viability ([18]; first compound 0.8 µM) of the same compound?
Its relative viability is 0.528.

What about the relative viability ([18]; first compound 8 µM) of the same compound?
The relative viability was 0.486.

And the relative viability ([19]; first compound 0.08 µM)?
The relative viability was 0.343.

What about the relative viability ([19]; first compound 0.253 µM) of the same compound?
Its relative viability is 0.358.

What about the relative viability ([19]; first compound 0.8 µM) of the same compound?
The relative viability was 0.269.

What about the relative viability ([19]; first compound 2.53 µM) of the same compound?
Its relative viability is 0.321.

And the relative viability ([19]; first compound 8 µM)?
Its relative viability is 0.257.

And the relative viability ([20]; first compound 0.08 µM)?
The relative viability was 0.778.

What about the relative viability ([20]; first compound 0.253 µM) of the same compound?
The relative viability was 0.757.

And the relative viability ([20]; first compound 0.8 µM)?
Its relative viability is 0.738.

And the relative viability ([20]; first compound 2.53 µM)?
Its relative viability is 0.725.

And the relative viability ([20]; first compound 8 µM)?
The relative viability was 0.654.

And the relative viability ([21]; first compound 0.08 µM)?
The relative viability was 0.276.

And the relative viability ([21]; first compound 0.253 µM)?
The relative viability was 0.257.

What about the relative viability ([21]; first compound 0.8 µM) of the same compound?
Its relative viability is 0.296.

And the relative viability ([21]; first compound 2.53 µM)?
The relative viability was 0.252.

What about the relative viability ([21]; first compound 8 µM) of the same compound?
Its relative viability is 0.308.

What about the relative viability ([22]; first compound 0.08 µM) of the same compound?
The relative viability was 1.02.

What about the relative viability ([22]; first compound 0.253 µM) of the same compound?
The relative viability was 0.966.

And the relative viability ([22]; first compound 0.8 µM)?
Its relative viability is 0.897.

And the relative viability ([22]; first compound 2.53 µM)?
Its relative viability is 0.729.

What about the relative viability ([22]; first compound 8 µM) of the same compound?
Its relative viability is 0.797.

And the relative viability ([23]; first compound 0.08 µM)?
Its relative viability is 0.78.

What about the relative viability ([23]; first compound 0.253 µM) of the same compound?
Its relative viability is 0.772.

And the relative viability ([23]; first compound 0.8 µM)?
Its relative viability is 0.724.

What about the relative viability ([23]; first compound 2.53 µM) of the same compound?
Its relative viability is 0.638.

What about the relative viability ([23]; first compound 8 µM) of the same compound?
The relative viability was 0.64.
